Assay results: patent US6552197B2, “Condensed-hexacyclic compounds and a process therefor” (Daiichi Pharmaceutical Co., Ltd., priority 1995, dated 2003)

How the values were obtained:
[1] = Color change on storage at high relative humidity, measured by a color difference meter; format: physicochemical; settings: for color change observed on stored sample: stored at a high relative humidity
Experimental: The control product was stored at a relative humidity of 93% and the degree of a color change was measured.

[2] = Hygroscopicity test (weight changes due to moisture absorption); format: physicochemical; settings: exposed to humidity of 83% and 93% at 25° C. over 5 days; FIG. 1
Experimental: A hygroscopicity test was conducted on (lS,9S)-1-amino-9-ethyl-5-fluoro-2,3-dihydro-9-hydroxy-4-methyl-1H,12H-benzo[de]pyrano[3′,4′:6,7]indolizino[1,2-b]-quinoline-10,13(9H,15H)-dione•methanesulfonate•dihydrate according to the present invention and (1S,9S)-1-amino-9-ethyl-5-fluoro-2,3-dihydro-9-hydroxy-4-methyl-1H,12H-benzo[de]pyrano[3′,4′:6,7]indolizino[1,2-b]-quinoline-10,13(9H,15H)-dione-hydrochloride (control product).
Described specifically, each salt was exposed to high-humidity conditions of 83% and 93% at 25° C. Over a period of 5 days, its weight changes were investigated.

[3] = stored for 0 month, relative humidity 93%
[4] = stored for 1 month, 25° C., relative humidity 93%
[5] = stored for 2 months, 25° C., relative humidity 93%

Structure (SMILES) | decomposition by moisture absorption (conclusion from color change) ([1]; stored at 25° C., relative humidity 93%) | color change observed on stored sample [1] | Color [1, 3] | Lab (chromaticity, brightness) [1, 3] | Color [1, 4] | Lab (chromaticity, brightness) [1, 4] | ΔE(H) (degree of a color difference) [1, 4] | Color [1, 5] | Lab (chromaticity, brightness) [1, 5] | ΔE(H) (degree of a color difference) [1, 5] | weight changes due to moisture absorption (hygroscopicity) [2]
CC[C@@]1(O)C(=O)OCc2c1cc1n(c2=O)Cc2c-1nc1cc(F)c(C)c3c1c2[C@@H](N)CC3.Cl [control product, (1S,9S)-1-amino-9-ethyl-5-fluoro-2,3-dihydro-9-hydroxy-4-methyl-1H,12H-benzo[de]pyrano[3′,4′:6,7]indolizino[1,2-b]-quinoline-10,13(9H,15H)-dione-hydrochloride] | decomposes by moisture absorption | color change (yellowish brown—brown; originally: yellow) was observed | Yellow | 81.68-81.69 | brown-yellow | 74.96-75.23 | 7.16-7.38 | brown-yellow | 62.65-67.43 | 14.53-19.24 | high hygroscopicity and a fast weight change due to hygroscopicity
CC[C@@]1(O)C(=O)OCc2c1cc1n(c2=O)Cc2c-1nc1cc(F)c(C)c3c1c2[C@@H](N)CC3 [methanesulfonate, (1S,9S)-1-Amino-9-ethyl-5-fluoro-2,3-dihydro-9-hydroxy-4-methyl-1H,12H-benzo[de]pyrano[3′,4′:6,7]-indolizino[1,2-b]quinoline-10,13(9H,15H)-dione•methanesulfonate•dihydrate] | – | No color change | – | – | – | – | – | – | – | – | a gradual and small change
